Laboratory results: paper PMC12281487, “Discovery and Validation of a Novel Class of Necroptosis Inhibitors Targeting RIPK1” (ACS Chemical Biology, 2025)
“Also recorded” adds a separate entry of the source. Counter-ions that a name gives are not always drawn. Like-named read-outs stand apart in the source and are kept apart here. Blank lines part the entries; values can stand above or below the compound they belong to.

Tests used:
[1] = system: RIPK1 Ser166 phosphorylation; assay: Western blot of RIPK1 Ser166 phosphorylation in I2.1 cells; format: cell-based, human; details: for phosphorylation of RIPK1 Ser166 after TNF: prior treatment with 10 μM compound
Protocol: All compound treatments were performed with a preprepared 1000× stock of the desired concentration in DMSO and added directly to the relevant plate, with a final concentration of 0.1% DMSO on the cells. TNF (final concentration 575 pM) was added to induce necroptosis, the cells incubated for 4 h and harvested.
(§1) Cells were transferred to a microcentrifuge tube and centrifuged at 200g for 5 min, and media were removed. Cells were washed with PBS and lysed with 100 μL of lysis buffer (radioimmunoprecipitation assay lysis buffer, Sigma-Aldrich, R0278) supplemented with 1× phosphatase inhibitor cocktail 2 (Sigma, P5726) and 1× complete EDTA-free protease inhibitor cocktail (Sigma, […])) on ice for 30 min. The lysate was collected by centrifugation at 17,000g, 4 °C for 5 min, and the lysate was transferred to a new microcentrifuge tube. Protein concentration was determined using the DC Protein Assay (Bio-Rad) in a 96-well plate as per the manufacturer’s instructions and subsequently adjusted to 1 mg mL^–1 using lysis buffer. Samples were prepared by adding 4 μL of 4× loading buffer (Biorad, 161-0747) containing β-mercaptoethanol to 12 μL of protein sample and boiling at 95 °C for 10 min. 14 μL of each sample was loaded onto a 4–15% Mini-PROTEAN TGX precast gel (Biorad, 456-1086) and run in 1× running buffer (0.25 M Tris, 0.2 M glycine, 0.1% (w/v) SDS) for 1.15 h at 130 V. Either 2 μL of precision plus protein all blue prestained protein standards (Bio-Rad, 1610373) or precision plus protein dual color standards (Bio-Rad, 1610374) was used in at least one well.
Proteins were transferred onto a nitrocellulose membrane (GE Healthcare) using the Trans-Blot Turbo Transfer System (Biorad, 1704150) at 2.5 A and 25 V for 7 min. The membrane was stained with Ponceau S to confirm protein transfer prior to blocking with 5% (w/v) nonfat dried skimmed milk in TBS-T (1× Tris-buffered saline, 0.1% (v/v) Tween-20) at rt for 1 h. Staining with the desired primary antibody in 5% (w/v) nonfat dried skimmed milk in TBS-T was performed overnight at 4 °C. The blot was washed with TBS-T at rt (3 × 5 min) and stained with secondary antibody in 5% (w/v) nonfat dried skimmed milk in TBS-T for 1 h at rt. The blot was washed with TBS-T at rt (3 × 5 min), visualized with Immobilon Crescendo Western HRP substrate, and imaged using ImageQuant LAS-4000 Imaging System (Fujifilm), and the contrast normalized in Fiji.

[2] = system: I2.1 FADD–/– human Jurkat cells; assay: IncuCyte necroptosis assay in I2.1 cells; details: for EC50: read-out: EC50 (95% CI), necroptosis inhibition; for EC50 values of well-characterized necroptosis inhibitors (assay validation), in words: Figure S1e
Protocol: A cell-based assay was established to monitor necroptosis in I2.1 cells using the IncuCyte S3 live cell microscopy platform (Figure S1a). Necroptosis was induced by treatment with TNF, and Sytox Green was used to monitor membrane permeabilization over time as an indicator of progressive necroptotic cell death (Figure S1b–d), allowing determination of the EC50 of candidate necroptosis inhibitors.
I2.1 cells were seeded in a sterile 96-well plate (Greiner) at 20,000 cells per well and incubated at 37 °C overnight. The cells were treated with a final concentration of 600 pM TNF, 1 μM Sytox Green, and compounds in a dose-dependent manner. Wells containing TNF and Sytox Green served as positive control. Wells containing DMSO and Sytox Green served as a negative control. The plate was placed into an IncuCyte S3 Live Cell Analysis System (Sartorius) and readings for phase and green fluorescence were taken every hour for 24 h, with 4 images per well. The images were analyzed with IncuCyte 2021C software and the Green Integrated Intensity Per Image/Phase Area Per Image (GCU × μm^2/image/μm^2/image or GP) was exported. The background at t = 0 h was subtracted, and the linear slope (t = 3–7 h) was calculated by plotting GP against time. The percent inhibition of necroptosis was determined by normalizing to the positive and negative controls and graphing against the [compound]. EC50 values were determined using Prism 10 for each replicate, which were then used to calculate the geometric mean EC50 and associated 95% CIs.
I2.1 cells in a 96-well plate were treated with TNF to induce necroptosis, a dilution series of the candidate necroptosis inhibitor and Sytox Green to monitor cell death. Plates were placed in the IncuCyte® and imaged every hour for 24 h. Cell death was measured over time and used to determine the proportion of necroptotic cells compared to those without necroptosis induction or not treated with an inhibitor. The linear portion of the graph was used to determine an initial rate for calculation of the EC50. TNF with Sytox Green and Sytox Green alone were used as positive and negative controls, respectively. […] EC50 values are expressed as the geometric mean with a 95% confidence interval (CI) of at least three biological replicates.

[3] = molecular target: T1, RIPK1 (Homo sapiens, UniProt Q13546); assay: Streptavidin mass shift assay (photoaffinity labeling, target engagement) in I2.1 cells; format: cell-based; details: particularly after 5 min of UV irradiation
T1 construct: Following incubation of I2.1 cells with the probe, irradiation to induce photocrosslinking; endogenous in cells; host or cells: I2.1 FADD-deficient Jurkat T cells (ATCC, CRL-2572)
T1 sequence (Q13546 1-671): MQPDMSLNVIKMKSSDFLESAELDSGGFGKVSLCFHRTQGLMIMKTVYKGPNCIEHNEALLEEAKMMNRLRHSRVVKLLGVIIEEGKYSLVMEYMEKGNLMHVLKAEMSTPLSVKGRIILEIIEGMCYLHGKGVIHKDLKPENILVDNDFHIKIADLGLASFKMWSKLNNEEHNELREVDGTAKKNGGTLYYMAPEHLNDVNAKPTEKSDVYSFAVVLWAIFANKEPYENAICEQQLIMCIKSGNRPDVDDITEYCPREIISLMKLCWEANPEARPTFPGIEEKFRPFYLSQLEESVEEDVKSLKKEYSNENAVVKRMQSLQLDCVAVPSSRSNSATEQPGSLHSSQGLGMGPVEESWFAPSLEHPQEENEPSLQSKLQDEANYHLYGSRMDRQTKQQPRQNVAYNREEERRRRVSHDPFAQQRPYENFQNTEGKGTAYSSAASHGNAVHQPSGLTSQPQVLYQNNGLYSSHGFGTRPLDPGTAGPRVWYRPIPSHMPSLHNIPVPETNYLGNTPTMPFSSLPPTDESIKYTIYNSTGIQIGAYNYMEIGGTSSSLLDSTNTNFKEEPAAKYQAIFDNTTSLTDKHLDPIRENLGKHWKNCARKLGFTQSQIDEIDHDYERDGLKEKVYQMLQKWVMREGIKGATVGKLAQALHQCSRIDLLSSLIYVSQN
Protocol: Target engagement was confirmed by Streptavidin mass shift assay, whereby lysates are incubated with streptavidin and subsequently separated by SDS–PAGE. The high stability of streptavidin at a range of temperatures, in various detergents and pH, in combination with the extremely high affinity for biotin means the streptavidin–biotin interaction is not separated during gel electrophoresis, resulting in a mass shift of biotin-labeled proteins in the presence of streptavidin, which can be visualized by Western blot (Figure a).
I2.1 cells were seeded in sterile six-well plates at a density of 2 × 10^6 cells per well and incubated at 37 °C overnight. 1000× stocks of the desired concentration of compound in DMSO were preprepared. […]
Cells were transferred to a microcentrifuge tube, centrifuged at 200g for 5 min, and media removed. […] Protein concentration was determined using the DC Protein Assay (Bio-Rad) in a 96-well plate as per the manufacturer’s instructions and the concentration adjusted to 1–2 mg mL^–1 using lysis buffer. […]
Samples were prepared by adding 4 μL of 4× loading buffer to 10 μL of the protein samples and boiling at 95 °C for 10 min. […] In-gel fluorescence was detected by using a Typhoon FLA 9500 biomolecular imager (750 V, 100 μm pixels). […]

[4] = system: RIPK1, RIPK3 and MLKL phosphorylation; assay: Western blot of RIPK1, RIPK3 and MLKL phosphorylation in HT-29 cells; format: cell-based, human; details: TNF, birinapant and Z-VAD-FMK
Protocol: All compound treatments were performed with a preprepared 1000× stock of the desired concentration and added directly to the relevant plate with a final concentration of 0.1% DMSO on the cells. A combination of TNF (final concentration of 1.2 nM), Birinapant (final concentration 100 nM), and Z-VAD-FMK (final concentration 20 μM) was added to induce necroptosis, the cells incubated for 7 h, and harvested.
as §1, with “14 μL of each sample was loaded onto a 4–15% Mini-PROTEAN TGX precast gel (Biorad, 456-1086) and run in 1× running buffer (0.25 M Tris, 0.2 M glycine, 0.1% (w/v) SDS) for 1.15 h at 130 V. Either 2 μL of precision plus protein all blue prestained protein standards (Bio-Rad, 1610373) or precision plus protein dual color standards (Bio-Rad, 1610374) was used in at least one well.” left out

[5] = molecular target: Aurora kinase B (Homo sapiens, UniProt Q96GD4); assay: Kinase panel screen (SelectScreen, Z-lyte); format: biochemical; details: single concentration of 1 µM, % inhibition, Figure S2c
Protocol: (a) Western blot analysis of RIPK1, RIPK3 and MLKL phosphorylation in HT-29 cells with treatment of necroptosis inhibitors and the 7PQ series. Results are representative of two experiments. […] Results are representative of two experiments. (c) Kinase activity panel screen. Compounds were screened at a single concentration of 1 µM at Thermofisher.
The kinase data was provided by Thermofisher SelectScreen Biochemical Kinase Profiling service using the Z-lyte technology. Each compound was profiled at […] against a representative panel of 25 kinases.

[6] = system: C57BL/6J mice; assay: TNF-induced SIRS murine model; details: 5 mg/kg i.v. 15 min before TNF 0.5 mg/kg i.v.
Protocol: Male C57BL/6J mice of 18–25 g were used at the age of 6–8 weeks. Three animals were included in each experimental group. All animal experiments were carried out with the permission of the local animal ethical committee in accordance with the EU Directive (2010/63/EU), Portuguese laws (DL113/2013, 2880/2015, 260/2016), and all relevant legislations. Animals received humane care in a temperature-controlled environment with a 12 h light–dark cycle and ad libitum access to pelleted chow and water, complying with the Institute’s guidelines, and as outlined in the “Guide for the Care and Use of Laboratory Animals” prepared by the National Academy of Sciences and published by the National Institutes of Health (NIH publication 86-23 revised 1985). […] TNF was diluted in sterile PBS. […] All injections were administered intravenously (i.v.).

[7] = system: HT-29 cells; assay: IncuCyte necroptosis assay in HT-29 cells; format: cell-based, human; details: TNF, birinapant and Z-VAD-FMK induced; Figure S1f
Description: Wells containing TSZ served as a positive control.

[8] = TNF-induced necroptosis, I2.1 cells, Sytox Green, geometric mean with 95% CI, at least three biological replicates

Chain of Aurora kinase B (Q96GD4 whole entry): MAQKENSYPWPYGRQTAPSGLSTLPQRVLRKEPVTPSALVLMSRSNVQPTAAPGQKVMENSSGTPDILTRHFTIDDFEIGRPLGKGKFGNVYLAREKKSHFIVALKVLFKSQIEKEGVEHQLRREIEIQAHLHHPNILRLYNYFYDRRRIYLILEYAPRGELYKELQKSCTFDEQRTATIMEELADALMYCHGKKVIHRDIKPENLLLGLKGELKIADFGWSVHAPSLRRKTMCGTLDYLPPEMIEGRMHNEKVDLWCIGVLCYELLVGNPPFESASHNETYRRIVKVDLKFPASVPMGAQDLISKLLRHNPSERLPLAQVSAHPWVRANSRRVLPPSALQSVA

engagement of RIPK1 by the probe (streptavidin-shifted band) [3]: Dose-dependent engagement of RIPK1
Compound: C#CCN(CCC1(C)N=N1)S(=O)(=O)c1ccc(-c2ccc3cccnc3c2)cc1 [7PQYnD, N-(2-(3-Methyl-3H-diazirin-3-yl)ethyl)-N-(prop-2-yn-1-yl)-4-(quinolin-7-yl)benzenesulfonamide]
phosphorylation of RIPK1 Ser166 after TNF [1]: blocked | EC50 ([2]; Homo sapiens, Jurkat): 8.9 µM | fold less potent than the parent compounds AZ’902 and AZ’320 (necroptosis inhibition) ([2]; I2.1 cells): 2–5 fold

Compound: CN1C(=O)NC(Cc2c[nH]c3c(Cl)cccc23)C1=O (centres unmarked) [Nec-1s, reference compound]
EC50 values of well-characterized necroptosis inhibitors (assay validation), in words ([2]; I2.1 cells): consistent with those previously reported

Compound: O=C(c1ccc(-c2ccc3cccnc3c2)cc1)N1CCOCC1 [compound 6, Morpholino(4-(quinolin-7-yl)phenyl)methanone]
EC50 ([2]; Homo sapiens, Jurkat): 23 µM

Compound: CN(C[C@H]1CCNC1)S(=O)(=O)c1ccc(-c2ccc3cccnc3c2)cc1 [compound 2, (S)-N-Methyl-N-(pyrrolidin-3-ylmethyl)-4-(quinolin-7-yl)benzenesulfonamide·HCl]
EC50 ([2]; Homo sapiens, Jurkat): 1.7 µM

Compound: O=C(c1ccc(-c2cnc3ccccc3c2)cc1)N1CCOCC1 [compound 10, Morpholino(4-(quinolin-3-yl)phenyl)methanone]
EC50 (95% CI), necroptosis inhibition [2, 8]: Inactive

Compound: CC(C)S(=O)(=O)c1ccc2nccc(Nc3ccc4scnc4c3)c2c1 [GSK’872, reference compound]
phosphorylation of RIPK1 Ser166 after TNF [1]: no inhibition | EC50 values of well-characterized necroptosis inhibitors (assay validation), in words ([2]; I2.1 cells): consistent with those previously reported | phosphorylation of necrosome components (RIPK1, RIPK3, MLKL) [4]: inhibited phosphorylation of RIPK3 and MLKL but not RIPK1

Compound: O=C(c1ccc(-c2ccc3ccncc3c2)cc1)N1CCOCC1 [compound 7, (4-(Isoquinolin-7-yl)phenyl)(morpholino)methanone]
EC50 (95% CI), necroptosis inhibition [2, 8]: Inactive

Compound: O=C(c1ccc(-c2ccc3ncccc3c2)cc1)N1CCOCC1 [compound 9, Morpholino(4-(quinolin-6-yl)phenyl)methanone]
EC50 (95% CI), necroptosis inhibition [2, 8]: Inactive

Compound: CS(=O)(=O)CC1CN(S(=O)(=O)c2ccc(-c3ccc4cccnc4c3)cc2)C1 [AZ’320, 7-(4-((3-((Methylsulfonyl)methyl)azetidin-1-yl)sulfonyl)phenyl)quinoline]
dose dependence of the effect on phosphorylation of RIPK1 Ser166 [1]: dose dependent | EC50 ([2]; Homo sapiens, Jurkat): 4.9 µM | off-target activity in a panel of 25 kinases [5]: off–target activity observed primarily against Aurora kinase B | effects on temperature and body weight after TNF [6]: rescuing effects on temperature and body weight | protection from TNF-induced mortality (survival) ([6]; 3 mice per group): completely reverted the toxic effects induced by TNF; also recorded: preventing mortality

Compound: CC(=O)N1CC[C@H](CN(C)S(=O)(=O)c2ccc(-c3ccc4cccnc4c3)cc2)C1 [AZ’902, (S)-N-((1-Acetylpyrrolidin-3-yl)methyl)-N-methyl-4-(quinolin-7-yl)benzenesulfonamide]
dose dependence of the effect on phosphorylation of RIPK1 Ser166 [1]: dose dependent | phosphorylation of RIPK1 Ser166 after TNF [1]: blocked | EC50 ([2]; Homo sapiens, Jurkat): 1.6 µM | off-target activity in a panel of 25 kinases [5]: off–target activity observed primarily against Aurora kinase B | necroptosis inhibition activity in HT-29 cells [7]: confirmed

Compound: CC(C)(C)OC(=O)N1CC[C@@H](NC(=O)c2ccc(-c3ccc4cccnc4c3)cc2)C1 [compound 5, tert-Butyl (R)-3-(4-(Quinolin-7-yl)benzamido)pyrrolidine-1-carboxylate]
EC50 ([2]; Homo sapiens, Jurkat): 6.7 µM

Compound: O=C(c1ccc(-c2ccc3ccccc3n2)cc1)N1CCOCC1 [compound 11, Morpholino(4-(quinolin-2-yl)phenyl)methanone]
EC50 (95% CI), necroptosis inhibition [2, 8]: Inactive

Compound: tert-Butyl(S)-3-(((N-methyl-4-(quinolin-7-yl)phenyl)sulfonamido)methyl)pyrrolidine-1-carboxylate [compound 3]
EC50 [2, 8]: 2.5 µM

Compound: CC(=O)N1CC[C@@H](CN(C)S(=O)(=O)c2ccc(-c3ccc4cccnc4c3)cc2)C1 [compound 1, (R)-N-((1-Acetylpyrrolidin-3-yl)methyl)-N-methyl-4-(quinolin-7-yl)benzenesulfonamide]
EC50 ([2]; Homo sapiens, Jurkat): 1 µM

Compound: O=C(c1ccc(-c2ccc3nccnc3c2)cc1)N1CCOCC1 [compound 12, Morpholino(4-(quinoxalin-6-yl)phenyl)methanone]
EC50 (95% CI), necroptosis inhibition [2, 8]: Inactive; also recorded: loss of activity

Compound: CC(C)(C)OC(=O)N1CC[C@H](CNC(=O)c2ccc(-c3ccc4cccnc4c3)cc2)C1 [compound 4, tert-Butyl (R)-3-((4-(Quinolin-7-yl)benzamido)methyl)pyrrolidine-1-carboxylate]
EC50 ([2]; Homo sapiens, Jurkat): 3 µM

Compound: O=C(c1ccc(-c2ccc3cnccc3c2)cc1)N1CCOCC1 [compound 8, (4-(Isoquinolin-6-yl)phenyl)(morpholino)methanone]
EC50 (95% CI), necroptosis inhibition [2, 8]: Inactive

Compound: COc1nccnc1NS(=O)(=O)c1ccc(NC(=O)/C=C/c2ccc([N+](=O)[O-])s2)cc1 [NSA, Necrosulfonamide, reference compound]
EC50 values of well-characterized necroptosis inhibitors (assay validation), in words ([2]; I2.1 cells): consistent with those previously reported | phosphorylation of necrosome components (RIPK1, RIPK3, MLKL) [4]: retained phosphorylation of all components of the necrosome
